System: 439559-082-T-J2-PDC spheroids viability
Test: Anticancer human tumor 439559-082-T-J2-PDC patient-derived colon adenocarcinoma cell line growth inhibition [GQUAD]
Settings: for IC50: curve of first compound; for viability, T/C: stronger effect = lower value
Text: DNA G-quadruplex Stabilizer Agents in Combinations in Complex Spheroids
A high-throughput screen of multi-cell type tumor spheroids was designed to identify active combinations of DNA G-quadruplex stabilizer agents and targeted small molecules. Complex spheroids include a stromal component modeled by human endothelial cells (HUVEC) and fibroblasts modeled by human mesenchymal stem cells (MSCs). The concentration ranges selected for each drug and investigational agent were based upon clinically achievable concentrations if the clinical Cmax of the agent was known.
Compounds. The drugs and investigational agents: pidnarulex (CX-5461; NSC782164), APTO-253 (NSC789042), BRACO-19 (NSC847499), peposertib (NSC802822), ceralasertib (NSC780249), elimusertib (NSC800525), camonsertib (NSC841442), AZD-1390 (NSC803789), olaparib (NSC753686), talazoparib (NSC767125), ART-558 (NSC835418), sotorasib (NSC818433), MRTX-1133 (NSC836407), SN-38 (NSC673596), topotecan (NSC609699), etoposide (NSC141540), doxorubicin (NSC123127), gemcitabine (NSC613327), 5-fluorouracil (NSC19893), paclitaxel (NSC125973), vemurafenib (NSC761431), panobinostat (NSC761190), R-306465 (JNJ-16241199; NSC773264), adavosertib (NSC754352), TP-3654 (NSC805149), carboplatin (NSC241240), KSQ-4279 (NSC840948), and staurosporine (NSC755774) were obtained from the National Cancer Institute (NCI) Developmental Therapeutics Program Chemical Repository (34). The FDA-approved anticancer drug set is available from the NCI Developmental Therapeutics Program. […] The stock solutions were prepared in dimethyl sulfoxide (DMSO, Sigma-Aldrich, St. Louis, MO, cat. D2650) at 800-fold the tested concentration and stored at -70 degrees C prior to their use. All drugs and investigational agents were tested over a range starting from a high concentration at or near the clinical Cmax and decreasing in half-log increments. If the clinical Cmax for an agent had not been determined, the highest concentration tested was 10 microM.
2.3 Cell Culture. All cells were maintained in an incubator at 37 degrees C and 5% CO2 with 95% humidity. The PDC lines were cultured according to standard operating procedures established by the NCI PDMR. All PDCs were thawed and cultured in Matrigel-coated flasks prepared with a working solution of 1X Ham's F-12 nutrient mix, without supplementation (Invitrogen, cat. 11765054), 100 U/mL penicillin-streptomycin (Invitrogen, cat. 15140122), and 2.5% Matrigel (Corning Inc., cat. 354248) for the first three passages. The 857933-349-R-J2-PDC line was cultured in 6C/Colon 1B media, which includes advanced DMEM/F-12 (Thermo Fisher Scientific, cat. 12634028), 10 mM HEPES (Thermo Fisher Scientific, cat. 15630080), 1X GlutaMAX supplement (Thermo Fisher Scientific, cat. 35050061), 0.1 mg/mL primocin (InvivoGen, cat. ant-pm-2), 10% defined fetal bovine serum, heat inactivated (HyClone Laboratories Inc., cat. SH30070.03HI), 50% L-WRN conditioned media (ATCC, cat. CRL-3276), 1.25 mM N-Acetyl-L-cysteine (Sigma-Aldrich, cat. A9165), 10 mM nicotinamide (Sigma-Aldrich, cat. N0636), 1X B-27 supplement (Thermo Fisher Scientific, cat. 17504044), 1X N-2 supplement (Thermo Fisher Scientific, cat. 17502048), 10 microM Y-27632 dihydrochloride (Tocris Bioscience, cat. 1254), and 50 ng/mL human EGF recombinant protein (Thermo Fisher Scientific, cat. PHG0311). The 485176-168-R4-J1-PDC line was cultured in Panc media, which includes all 6C/Colon 1B media components plus 100 ng/mL human FGF-10 (Thermo Fisher Scientific, cat. 100-26), 500 nM SB-431542 (Selleckchem, cat. S1067), and gastrin (Tocris, cat. 3006).
[…]

[1] = second compound 0.0316 µM, first compound 0.0316 µM
[2] = second compound 0.0316 µM, first compound 0.316 µM
[3] = second compound 0.1 µM, first compound 0.0316 µM
[4] = second compound 0.1 µM, first compound 0.316 µM
[5] = second compound 0.316 µM, first compound 0.0316 µM
[6] = second compound 0.316 µM, first compound 0.316 µM
[7] = second compound 1 µM, first compound 0.0316 µM
[8] = second compound 1 µM, first compound 0.316 µM
[9] = second compound 3.16 µM, first compound 0.0316 µM
[10] = second compound 3.16 µM, first compound 0.316 µM
[11] = second compound 10 µM, first compound 0.0316 µM
[12] = second compound 10 µM, first compound 0.316 µM
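Further: spheroids exposed to the agents for 7 days before readout.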
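Wherever viability, T/C is given: percent of luminescence signal in DMSO vehicle wells taken as 100% viability.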

Cn1ncnc1[C@H]1c2n[nH]c(=O)c3cc(F)cc(c23)N[C@@H]1c1ccc(F)cc1 + Cc1[nH]c2ccc(F)cc2c1-c1nc2c3cccnc3c3ncccc3c2[nH]1
IC50 (second compound 0.0316 µM): > 316 nM | IC50 (second compound 0.1 µM): > 316 nM | IC50 (second compound 0.316 µM): > 316 nM | IC50 (second compound 1 µM): > 316 nM | IC50 (second compound 3.16 µM): > 316 nM | IC50 (second compound 10 µM): > 316 nM | viability, T/C (second compound 0.0316 µM, first compound 0.000999 µM): 105% | viability, T/C (second compound 0.0316 µM, first compound 0.00316 µM): 93.7% | viability, T/C (second compound 0.0316 µM, first compound 0.00999 µM): 97.2% | viability, T/C [1]: 89.4% | viability, T/C (second compound 0.0316 µM, first compound 0.0999 µM): 90.4% | viability, T/C [2]: 92.1% | viability, T/C (second compound 0.1 µM, first compound 0.000999 µM): 103% | viability, T/C (second compound 0.1 µM, first compound 0.00316 µM): 105% | viability, T/C (second compound 0.1 µM, first compound 0.00999 µM): 93.6% | viability, T/C [3]: 93.5% | viability, T/C (second compound 0.1 µM, first compound 0.0999 µM): 90% | viability, T/C [4]: 88.9% | viability, T/C (second compound 0.316 µM, first compound 0.000999 µM): 113% | viability, T/C (second compound 0.316 µM, first compound 0.00316 µM): 99% | viability, T/C (second compound 0.316 µM, first compound 0.00999 µM): 99.6% | viability, T/C [5]: 93.4% | viability, T/C (second compound 0.316 µM, first compound 0.0999 µM): 97.2% | viability, T/C [6]: 85.8% | viability, T/C (second compound 1 µM, first compound 0.000999 µM): 87.3% | viability, T/C (second compound 1 µM, first compound 0.00316 µM): 98.5% | viability, T/C (second compound 1 µM, first compound 0.00999 µM): 92% | viability, T/C [7]: 94.1% | viability, T/C (second compound 1 µM, first compound 0.0999 µM): 99.2% | viability, T/C [8]: 84% | viability, T/C (second compound 3.16 µM, first compound 0.000999 µM): 79.6% | viability, T/C (second compound 3.16 µM, first compound 0.00316 µM): 87.5% | viability, T/C (second compound 3.16 µM, first compound 0.00999 µM): 77.3% | viability, T/C [9]: 85.7% | viability, T/C (second compound 3.16 µM, first compound 0.0999 µM): 81.8% | viability, T/C [10]: 76.2% | viability, T/C (second compound 10 µM, first compound 0.000999 µM): 85.7% | viability, T/C (second compound 10 µM, first compound 0.00316 µM): 86.7% | viability, T/C (second compound 10 µM, first compound 0.00999 µM): 72.3% | viability, T/C [11]: 85.8% | viability, T/C (second compound 10 µM, first compound 0.0999 µM): 82% | viability, T/C [12]: 61.8%

Nc1ccn(C2OC(CO)C(O)C2(F)F)c(=O)n1 (centres undefined) + Cc1[nH]c2ccc(F)cc2c1-c1nc2c3cccnc3c3ncccc3c2[nH]1
IC50 (second compound 0.0316 µM): 375 nM | IC50 (second compound 0.1 µM): 468 nM | IC50 (second compound 0.316 µM): 362 nM | IC50 (second compound 1 µM): 304 nM | IC50 (second compound 3.16 µM): 203 nM | IC50 (second compound 10 µM): 211 nM | viability, T/C [1]: 84.5% | viability, T/C (second compound 0.0316 µM, first compound 0.1 µM): 76.7% | viability, T/C [2]: 51.8% | viability, T/C (second compound 0.0316 µM, first compound 1 µM): 34.9% | viability, T/C (second compound 0.0316 µM, first compound 3.16 µM): 26.7% | viability, T/C (second compound 0.0316 µM, first compound 10 µM): 25.9% | viability, T/C [3]: 92.7% | viability, T/C (second compound 0.1 µM, first compound 0.1 µM): 71.9% | viability, T/C [4]: 59% | viability, T/C (second compound 0.1 µM, first compound 1 µM): 36.9% | viability, T/C (second compound 0.1 µM, first compound 3.16 µM): 29.5% | viability, T/C (second compound 0.1 µM, first compound 10 µM): 23.3% | viability, T/C [5]: 98.8% | viability, T/C (second compound 0.316 µM, first compound 0.1 µM): 73.6% | viability, T/C [6]: 47.8% | viability, T/C (second compound 0.316 µM, first compound 1 µM): 41.3% | viability, T/C (second compound 0.316 µM, first compound 3.16 µM): 28.6% | viability, T/C (second compound 0.316 µM, first compound 10 µM): 23.7% | viability, T/C [7]: 82.8% | viability, T/C (second compound 1 µM, first compound 0.1 µM): 67.8% | viability, T/C [8]: 50.4% | viability, T/C (second compound 1 µM, first compound 1 µM): 32.8% | viability, T/C (second compound 1 µM, first compound 3.16 µM): 27.6% | viability, T/C (second compound 1 µM, first compound 10 µM): 22.6% | viability, T/C [9]: 73.3% | viability, T/C (second compound 3.16 µM, first compound 0.1 µM): 65.1% | viability, T/C [10]: 38.6% | viability, T/C (second compound 3.16 µM, first compound 1 µM): 31% | viability, T/C (second compound 3.16 µM, first compound 3.16 µM): 26.4% | viability, T/C (second compound 3.16 µM, first compound 10 µM): 17.5% | viability, T/C [11]: 73.2% | viability, T/C (second compound 10 µM, first compound 0.1 µM): 66.2% | viability, T/C [12]: 40.9% | viability, T/C (second compound 10 µM, first compound 1 µM): 27% | viability, T/C (second compound 10 µM, first compound 3.16 µM): 26.2% | viability, T/C (second compound 10 µM, first compound 10 µM): 19%
